Numbers after ± are expanded uncertainties.
Columns and labels:
[1] = 298.15 K; 101.33 kPa; Liquid; Vibrating tube method
[2] = refractive index (Na D-line) (dimensionless); conditions: 298.15 K; 101.33 kPa; Liquid; Standard Abbe refractometry

mass density [1] [kg/m3]	refractive index [2]	SMILES
1367.4 ± 2.1	1.4095 ± 0.0008	CCCCn1cc[n+](C)c1.F[P-](F)(F)(F)(F)F [1-butyl-3-methylimidazolium hexafluorophosphate]
786.47 ± 2	1.3594 ± 0.0008	CCO [ethanol]
	1.3325 ± 0.0008	O [water]

Reference: the NIST ThermoML archive (doi:10.1021/acs.jced.6b00829)
